The test system of experiment [1] is livers from LPP Atp7b^−/− rats. The experiment is described as follows: Liver perfusion experiments, biliary iron excretion. Further details: species or system rat. To be noted: liver perfusion one hour at 37° C., 35 μmol methanobactin, ICP-OES. Here is the method:
Cannulated livers from LPP Atp7b^−/− rats were perfused for one hour at 37° C. with Krebs-Ringer bicarbonate solution, gassed with 95% O2 and 5% CO2, and MB-SB2 or MB-OB3b (35 μmol). During perfusion total bile was collected in 10-minute intervals. Biliary iron concentrations were determined by inductively coupled plasma optical emission spectrometry (ICP-OES) as described (Lichtmannegger et al. J Clin Invest, 2016, 126, 2721-2735).

Experiment [2] relates to LPP Atp7b^−/− rats. The experiment is described as follows: Fecal iron excretion after intraperitoneal injection. In kind it is in vivo, rat. To be noted: i.p. twice a day for four days, 110 mg/kg bw MB-SB2 or 150 mg/kg bw MB-OB3b, ICP-OES. Here is the method:
LPP Atp7b^−/− rats were injected intraperitoneally (i.p.) twice a day for four consecutive days with either 110 mg/kg bw MB-SB2 or 150 mg/kg bw MB-OB3b. Rats were housed individually in metabolic cages for 4 days. Feces of each rat was collected in 24-hour periods at 24, 48, 72 and 96 hours after treatment start. Feces was separated from chow residues, dried, homogenized by grinding or milling and digested with concentrated HNO3 and iron content determined with inductively coupled plasma optical emission spectrometry (ICP-OES).

Experiment [3] relates to Huh7 cells (human hepatoma cell line). Description: Cellular iron concentration in iron-preloaded Huh7 cells. In kind it is cell-based. As to conditions: Huh7 preloaded 24 hours with 50 μM FAC, then 0.5 mM test substance for 24 hours, N=4. Here is the method: FIG. 5: Control Huh7 cells (human hepatoma cell line) were preloaded for 24 hours with 50 μM FAC. The cells were then treated with 0.5 mM MB-SB2, 0.5 mM MB-OB3b and 0.5 mM DFO for 24 hours. […] Statistical analysis was done by One-way ANOVA (N=4).

Consider `CC(NC(=O)C(C)NC(=S)C1N=C(C(NC(=O)C(CO)NC(=O)C(C)NC(=S)C2N=C(C(=O)CCCNC(=N)N)NC2=O)C(C)OS(=O)(=O)O)OC1=O)C(=O)O` (stereo not drawn) [MB-SB2], for which, in experiment [1], the Biliary iron excretion entry was “brings iron to the bile”. Moreover, in experiment [2], the Fecal iron excretion entry is on record as “excrete iron in feces”. For the same compound, the Cellular iron concentration result in experiment [3] is “significantly reduces cellular iron concentration in iron-preloaded Huh7 cells to the untreated level”.

(Values after patent US20240131112A1, “USE OF METHANOBACTIN FOR TREATMENT OF IRON-RELATED DISEASES” (Helmholtz Zentrum Muenchen - Deutsches Forschungszentrum …, priority 2021, published 2024).)
